Assay results from patent publication US20260293894A1, “FUSED PYRROLIDINE-2-ONE HERBICIDAL COMPOUNDS” (SYNGENTA CROP PROTECTION AG, priority 2023, published 2026).

Experiments:
Format in all cases: in vivo
Details in all cases: 1000 g/Ha, evaluated after 13 days, glasshouse
[1] = system: Amaranthus retroflexus (AMARE); experiment: Pre-emergence herbicidal activity, percentage damage to AMARE
Method: (§1) Seeds of a variety of test species are sown in standard soil in pots Amaranthus palmeri (AMAPA), Amaranthus retroflexus (AMARE), Setaria faberi (SETFA), Echinochloa crus-galli (ECHCG), Ipomoea hederacea (IPOHE),). After cultivation for one day (pre-emergence) or after 8 days cultivation (post-emergence) under controlled conditions in a glasshouse (at 24/160C, day/night; 14 hours light; 65% humidity), the plants are sprayed with an aqueous spray solution derived from the dissolution of the technical active ingredient in a small amount of acetone and a special solvent and emulsifier mixture referred to as IF50 (11.12% Emulsogen EL360 TM+44.44% N-methylpyrrolidone+44.44% Dowanol DPM glycol ether, which was then diluted to required concentration using 0.2% Genapol XO80 (CAS No. 9043-30-5) in water as the diluent. Compounds are applied at the rates stated. The test plants are then grown in a glasshouse under controlled conditions in a glasshouse (at 24/160C, day/night; 14 hours light; 65% humidity) and watered twice daily. After 13 days for pre and post-emergence, the test is evaluated for the percentage damage caused to the plant. The biological activities are shown in the following table on a five-point scale (5=81-100%; 4=61-80%; 3=41-60%; 2=21-40%; 1=0-20%; NT=not tested).

[2] = system: Amaranthus palmeri (AMAPA); experiment: Post-emergence herbicidal activity, percentage damage to AMAPA
Method: as §1

[3] = system: Echinochloa crus-galli (ECHCG); experiment: Post-emergence herbicidal activity, percentage damage to ECHCG
Method: as §1

Setaria faberi (SETFA) [4] = experiment: Pre-emergence herbicidal activity, percentage damage to SETFA
Method: as §1

[5] = system: Echinochloa crus-galli (ECHCG); experiment: Pre-emergence herbicidal activity, percentage damage to ECHCG
Method: as §1

[6] = system: Amaranthus palmeri (AMAPA); experiment: Pre-emergence herbicidal activity, percentage damage to AMAPA
Method: as §1

Setaria faberi (SETFA) [7] = experiment: Post-emergence herbicidal activity, percentage damage to SETFA
Method: as §1

[8] = system: Ipomoea hederacea (IPOHE); experiment: Pre-emergence herbicidal activity, percentage damage to IPOHE
Method: as §1

[9] = system: Ipomoea hederacea (IPOHE); experiment: Post-emergence herbicidal activity, percentage damage to IPOHE
Method: as §1

[10] = system: Amaranthus retroflexus (AMARE); experiment: Post-emergence herbicidal activity, percentage damage to AMARE
Method: as §1

| SMILES | percentage damage caused to the plant (AMARE) [1] | percentage damage caused to the plant (AMAPA) [2] | percentage damage caused to the plant (ECHCG) [3] | percentage damage caused to the plant (SETFA) (Setaria faberi (SETFA) [4]) | percentage damage caused to the plant (ECHCG) [5] | percentage damage caused to the plant (AMAPA) [6] | percentage damage caused to the plant (SETFA) (Setaria faberi (SETFA) [7]) | percentage damage caused to the plant (IPOHE) [8] | percentage damage caused to the plant (IPOHE) [9] | percentage damage caused to the plant (AMARE) [10] |
| --- | --- | --- | --- | --- | --- | --- | --- | --- | --- | --- |
| O=C(O)C[C@@H]1[C@@H]2C[C@@H]2C(=O)N1Cc1cccc(F)c1F (relative stereo) [A.01, 2-[(1R*,2R*,5S*)-3-[(2,3-difluorophenyl)methyl]-4-oxo-3-azabicyclo[3.1.0]hexan-2-yl]acetic acid] | 4 (61-80%) | 2 (21-40%) | 4 (61-80%) | 5 (81-100%) | 4 (61-80%) | 2 (21-40%) | 5 (81-100%) | 2 (21-40%) | 3 (41-60%) | 4 (61-80%) |
| COC(=O)C[C@H]1[C@@H]2C[C@@H]2C(=O)N1Cc1cccc(F)c1F (relative stereo) [A.10, methyl 2-[(1R*,2S*,5S*)-3-[(2,3-difluorophenyl)methyl]-4-oxo-3-azabicyclo[3.1.0]hexan-2-yl]acetate] | 2 (21-40%) | 1 (0-20%) | 2 (21-40%) | 4 (61-80%) | 1 (0-20%) | 2 (21-40%) | 4 (61-80%) | 1 (0-20%) | 2 (21-40%) | 2 (21-40%) |
| O=C(O)C[C@@H]1[C@@H]2C[C@@H]2C(=O)N1Cc1ccccc1F (relative stereo) [A.61, 2-[(1R*,2R*,5S*)-3-[(2-fluorophenyl)methyl]-4-oxo-3-azabicyclo[3.1.0]hexan-2-yl]acetic acid] | 5 (81-100%) | 3 (41-60%) | 3 (41-60%) | 5 (81-100%) | 3 (41-60%) | 4 (61-80%) | 5 (81-100%) | 1 (0-20%) | 3 (41-60%) | 4 (61-80%) |
| O=C(O)C[C@@H]1[C@@H]2C[C@@H]2C(=O)N1Cc1cccc(F)c1 (relative stereo) [A.64, 2-[(1R*,2R*,5S*)-3-[(3-fluorophenyl)methyl]-4-oxo-3-azabicyclo[3.1.0]hexan-2-yl]acetic acid] | 5 (81-100%) | 3 (41-60%) | 3 (41-60%) | 5 (81-100%) | 4 (61-80%) | 4 (61-80%) | 5 (81-100%) | 4 (61-80%) | 3 (41-60%) | 4 (61-80%) |
| O=C(O)C[C@@H]1[C@@H]2C[C@@H]2C(=O)N1Cc1ccc(F)cc1 (relative stereo) [A.67, 2-[(1R*,2R*,5S*)-3-[(4-fluorophenyl)methyl]-4-oxo-3-azabicyclo[3.1.0]hexan-2-yl]acetic acid] | 3 (41-60%) | 3 (41-60%) | 2 (21-40%) | 3 (41-60%) | 3 (41-60%) | 4 (61-80%) | 4 (61-80%) | 4 (61-80%) | 2 (21-40%) | 1 (0-20%) |
| O=C(O)C[C@@H]1[C@@H]2C[C@@H]2C(=O)N1Cc1cccc(Cl)c1 (relative stereo) [A.70, 2-[(1R*,2R*,5S*)-3-[(3-chlorophenyl)methyl]-4-oxo-3-azabicyclo[3.1.0]hexan-2-yl]acetic acid] | 2 (21-40%) | 3 (41-60%) | 3 (41-60%) | 5 (81-100%) | 4 (61-80%) | 1 (0-20%) | 4 (61-80%) | 1 (0-20%) | 1 (0-20%) | 1 (0-20%) |
| O=C(O)C[C@@H]1[C@@H]2C[C@@H]2C(=O)N1Cc1ccc(F)c(F)c1 (relative stereo) [A.73, 2-[(1R*,2R*,5S*)-3-[(3,4-difluorophenyl)methyl]-4-oxo-3-azabicyclo[3.1.0]hexan-2-yl]acetic acid] | 4 (61-80%) | 1 (0-20%) | 3 (41-60%) | 5 (81-100%) | 3 (41-60%) | 3 (41-60%) | 4 (61-80%) | 4 (61-80%) | 1 (0-20%) | 2 (21-40%) |
| O=C(O)C[C@@H]1[C@@H]2C[C@@H]2C(=O)N1Cc1ccc(Cl)cc1F (relative stereo) [A.76, 2-[(1R*,2R*,5S*)-3-[(2-fluoro-4-chloro)methyl]-4-oxo-3-azabicyclo[3.1.0]hexan-2-yl]acetic acid] | 1 (0-20%) | 1 (0-20%) | 1 (0-20%) | 3 (41-60%) | 1 (0-20%) | 3 (41-60%) | 3 (41-60%) | 4 (61-80%) | 2 (21-40%) | 1 (0-20%) |
| O=C(O)C[C@@H]1[C@@H]2CCCC[C@@H]2C(=O)N1Cc1cccc(F)c1F (relative stereo) [E.01, 2-[(1R*,3aS*,7aR*)-2-[(2,3-difluorophenyl)methyl]-3-oxo-3a,4,5,6,7,7a-hexahydro-1H-isoindol-1-yl]acetic acid] | 3 (41-60%) | 1 (0-20%) | 1 (0-20%) | 1 (0-20%) | 2 (21-40%) | 3 (41-60%) | 1 (0-20%) | – | 1 (0-20%) | 1 (0-20%) |
